# Assay results taken from ChEMBL document CHEMBL3804804, “Synthesis and antimycobacterial activity of N-(2-aminopurin-6-yl) and N-(purin-6-yl) amino acids and dipeptides” (Bioorg Med Chem Lett, 2016).
# Legend:
# [1] = Selectivity index, ratio of IC50 for human FEH cells to MIC for multidrug-resistant Mycobacterium tuberculosis; format: toxicity, cell-based
# [2] = test system: Mycobacterium tuberculosis; assay: Antimycobacterial activity against multidrug-resistant Mycobacterium tuberculosis harbouring Beijing genotype with combination of mutations of Ser 53-Leu 315 and Ser-Thr in rpoB and katG genes after 10 days by micro broth dilution method; format: functional
Structure (SMILES),selectivity ratio [1],MIC [2] [µg/mL]
Nc1nc(NCC(=O)N[C@@H](CCC(=O)O)C(=O)O)c2nc[nH]c2n1,> 25,0.7
COC(=O)[C@H](Cc1ccccc1)NC(=O)CNc1ncnc2[nH]cnc12,,1.5
CC1COc2c(N3CCN(C)CC3)c(F)cc3c(=O)c(C(=O)O)cn1c23 (configuration not stated) [OFLOXACIN],,0.1
COC(=O)CNc1nc(N)nc2[nH]cnc12.Cl.Cl,,6.25
CC(=O)Nc1nc(NCC(=O)O)c2nc[nH]c2n1,,0.7
CC(=O)Nc1nc(N2CCC[C@H]2C(=O)OC(C)(C)C)c2nc[nH]c2n1,,6.25
CC(C)[C@H](Nc1nc(N)nc2[nH]cnc12)C(=O)O,,6.25
CSCC[C@H](NC(=O)CNc1nc(N)nc2[nH]cnc12)C(=O)O.O,,3.1
O.O=C(O)CC[C@H](NC(=O)CNc1ncnc2[nH]cnc12)C(=O)O,> 25,0.7
COC(=O)[C@H](CCSC)NC(=O)CNc1nc(NC(C)=O)nc2[nH]cnc12,,3.1
